Patent US20150307520A1, “NOVEL HETEROARYL AND HETEROCYCLE COMPOUNDS, COMPOSITIONS AND METHODS THEREOF” (HUTCHISON MEDIPHARMA LIMITED, priority 2012, published 2015)

Legend:
Assay type in all cases: biochemical
p110β/p85α = p110β/p85α (Homo sapiens, UniProt P42338); assay: Transcreener KINASE Assay, kinase inhibition of p110β/p85α; conditions: for PI3Kβ IH % @ 1 uM: 1 uM test compound; for IC50: read-out: PI3Kβ IC50
Method in brief: (§1)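 Steps: compound (2% DMSO final) plus enzyme in HEPES/NaCl/EGTA/CHAPS/3 mM MgCl2/1 mM DTT buffer; start with PIP2/ATP addition (30 uM/10 uM solution); 80 min RT; add ADP detection mix, 60 min RT; read fluorescence polarization.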

p110δ/p85α = p110δ/p85α (Homo sapiens, UniProt O00329); assay: Transcreener KINASE Assay, kinase inhibition of p110δ/p85α; conditions: for PI3Kδ IH % @ 1 uM: 1 uM test compound; for IC50: read-out: PI3Kδ IC50
Method in brief: as §1

p110γ = p110γ (Homo sapiens, UniProt P48736); assay: Transcreener KINASE Assay, kinase inhibition of p110γ; conditions: for PI3Kγ IH % @ 1 uM: 1 uM test compound; for IC50: read-out: PI3Kγ IC50
Method in brief: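 FP read-out: far-red competitive immunoassay sensing ADP produced by recombinant p110/p85 or p110γ enzyme. Reaction 80 min RT, then detection mix 60 min RT. IC50 from curve fit.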

Sequence of p110γ (P48736 whole entry): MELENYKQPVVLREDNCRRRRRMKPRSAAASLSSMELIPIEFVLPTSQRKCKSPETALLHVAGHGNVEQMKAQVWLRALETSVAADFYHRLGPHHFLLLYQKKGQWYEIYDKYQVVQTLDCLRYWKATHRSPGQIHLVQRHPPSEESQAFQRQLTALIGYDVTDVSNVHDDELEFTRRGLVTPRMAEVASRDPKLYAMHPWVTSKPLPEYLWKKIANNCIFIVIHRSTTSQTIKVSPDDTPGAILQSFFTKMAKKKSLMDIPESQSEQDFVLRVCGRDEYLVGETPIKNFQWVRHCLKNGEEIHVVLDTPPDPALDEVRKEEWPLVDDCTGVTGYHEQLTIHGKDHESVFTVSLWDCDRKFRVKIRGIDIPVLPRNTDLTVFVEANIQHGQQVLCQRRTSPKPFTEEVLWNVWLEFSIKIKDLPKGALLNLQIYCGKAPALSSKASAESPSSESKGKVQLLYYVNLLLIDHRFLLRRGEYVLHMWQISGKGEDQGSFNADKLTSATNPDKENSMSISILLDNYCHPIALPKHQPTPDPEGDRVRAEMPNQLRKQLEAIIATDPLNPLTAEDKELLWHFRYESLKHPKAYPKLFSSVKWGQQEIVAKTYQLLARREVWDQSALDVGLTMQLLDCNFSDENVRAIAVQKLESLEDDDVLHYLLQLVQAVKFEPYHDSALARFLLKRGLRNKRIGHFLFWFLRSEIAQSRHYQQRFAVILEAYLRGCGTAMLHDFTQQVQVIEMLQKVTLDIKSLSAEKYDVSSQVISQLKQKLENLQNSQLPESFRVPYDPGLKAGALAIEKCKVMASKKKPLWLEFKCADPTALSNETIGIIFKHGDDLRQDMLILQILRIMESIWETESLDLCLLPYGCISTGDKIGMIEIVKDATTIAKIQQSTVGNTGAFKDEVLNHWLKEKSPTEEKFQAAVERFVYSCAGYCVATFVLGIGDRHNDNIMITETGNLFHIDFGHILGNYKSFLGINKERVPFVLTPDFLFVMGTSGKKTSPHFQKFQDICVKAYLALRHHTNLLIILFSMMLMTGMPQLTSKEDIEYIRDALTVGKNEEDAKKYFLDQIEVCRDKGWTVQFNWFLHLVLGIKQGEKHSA
Sequence of p110δ/p85α (O00329 whole entry): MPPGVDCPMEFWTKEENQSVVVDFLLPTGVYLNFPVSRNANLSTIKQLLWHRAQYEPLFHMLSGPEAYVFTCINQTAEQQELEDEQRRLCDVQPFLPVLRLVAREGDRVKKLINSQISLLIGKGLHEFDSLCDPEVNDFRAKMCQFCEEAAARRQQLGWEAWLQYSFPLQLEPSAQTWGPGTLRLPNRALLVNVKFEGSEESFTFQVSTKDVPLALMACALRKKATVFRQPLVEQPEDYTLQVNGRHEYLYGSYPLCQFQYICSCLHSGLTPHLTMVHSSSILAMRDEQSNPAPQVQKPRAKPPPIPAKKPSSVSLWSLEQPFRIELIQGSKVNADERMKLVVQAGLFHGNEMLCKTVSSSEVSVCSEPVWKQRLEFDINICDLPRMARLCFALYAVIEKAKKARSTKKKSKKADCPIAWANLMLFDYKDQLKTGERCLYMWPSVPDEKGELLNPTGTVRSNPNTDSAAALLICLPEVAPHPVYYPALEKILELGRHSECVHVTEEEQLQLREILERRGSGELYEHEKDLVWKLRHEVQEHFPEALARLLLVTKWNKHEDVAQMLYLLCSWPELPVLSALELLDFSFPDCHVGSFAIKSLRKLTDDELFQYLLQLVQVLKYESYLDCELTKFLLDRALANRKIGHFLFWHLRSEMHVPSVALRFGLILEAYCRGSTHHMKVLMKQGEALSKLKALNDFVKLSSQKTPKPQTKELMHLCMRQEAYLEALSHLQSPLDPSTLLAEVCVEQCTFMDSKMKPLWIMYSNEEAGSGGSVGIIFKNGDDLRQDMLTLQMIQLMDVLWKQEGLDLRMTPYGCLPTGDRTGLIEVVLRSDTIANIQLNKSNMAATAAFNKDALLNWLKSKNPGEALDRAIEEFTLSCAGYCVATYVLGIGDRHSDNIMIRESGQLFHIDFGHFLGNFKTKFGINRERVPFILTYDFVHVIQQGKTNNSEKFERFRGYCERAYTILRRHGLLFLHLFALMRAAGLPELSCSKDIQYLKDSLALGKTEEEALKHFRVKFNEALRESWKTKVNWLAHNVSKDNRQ
Sequence of p110δ/p85α (P27986 whole entry partner): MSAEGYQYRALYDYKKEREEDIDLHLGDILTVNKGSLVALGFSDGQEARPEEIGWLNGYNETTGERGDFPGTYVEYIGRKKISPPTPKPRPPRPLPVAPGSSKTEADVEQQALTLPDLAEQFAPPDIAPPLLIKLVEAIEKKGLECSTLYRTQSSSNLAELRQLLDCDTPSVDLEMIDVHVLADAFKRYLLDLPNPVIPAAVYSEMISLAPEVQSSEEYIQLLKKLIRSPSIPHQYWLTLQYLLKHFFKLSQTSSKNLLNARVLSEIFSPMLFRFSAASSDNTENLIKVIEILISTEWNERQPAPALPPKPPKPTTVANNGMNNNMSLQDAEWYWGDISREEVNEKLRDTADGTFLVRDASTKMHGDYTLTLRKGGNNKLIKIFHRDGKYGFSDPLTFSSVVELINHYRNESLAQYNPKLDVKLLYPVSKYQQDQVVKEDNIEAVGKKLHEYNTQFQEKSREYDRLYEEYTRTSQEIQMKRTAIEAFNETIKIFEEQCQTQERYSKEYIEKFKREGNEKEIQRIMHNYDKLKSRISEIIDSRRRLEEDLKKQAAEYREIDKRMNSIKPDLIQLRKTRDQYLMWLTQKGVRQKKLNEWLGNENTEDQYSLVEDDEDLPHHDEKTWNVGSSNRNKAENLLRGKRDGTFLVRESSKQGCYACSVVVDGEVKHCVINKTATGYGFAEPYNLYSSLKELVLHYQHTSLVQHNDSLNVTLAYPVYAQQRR
Sequence of p110β/p85α (P42338 whole entry): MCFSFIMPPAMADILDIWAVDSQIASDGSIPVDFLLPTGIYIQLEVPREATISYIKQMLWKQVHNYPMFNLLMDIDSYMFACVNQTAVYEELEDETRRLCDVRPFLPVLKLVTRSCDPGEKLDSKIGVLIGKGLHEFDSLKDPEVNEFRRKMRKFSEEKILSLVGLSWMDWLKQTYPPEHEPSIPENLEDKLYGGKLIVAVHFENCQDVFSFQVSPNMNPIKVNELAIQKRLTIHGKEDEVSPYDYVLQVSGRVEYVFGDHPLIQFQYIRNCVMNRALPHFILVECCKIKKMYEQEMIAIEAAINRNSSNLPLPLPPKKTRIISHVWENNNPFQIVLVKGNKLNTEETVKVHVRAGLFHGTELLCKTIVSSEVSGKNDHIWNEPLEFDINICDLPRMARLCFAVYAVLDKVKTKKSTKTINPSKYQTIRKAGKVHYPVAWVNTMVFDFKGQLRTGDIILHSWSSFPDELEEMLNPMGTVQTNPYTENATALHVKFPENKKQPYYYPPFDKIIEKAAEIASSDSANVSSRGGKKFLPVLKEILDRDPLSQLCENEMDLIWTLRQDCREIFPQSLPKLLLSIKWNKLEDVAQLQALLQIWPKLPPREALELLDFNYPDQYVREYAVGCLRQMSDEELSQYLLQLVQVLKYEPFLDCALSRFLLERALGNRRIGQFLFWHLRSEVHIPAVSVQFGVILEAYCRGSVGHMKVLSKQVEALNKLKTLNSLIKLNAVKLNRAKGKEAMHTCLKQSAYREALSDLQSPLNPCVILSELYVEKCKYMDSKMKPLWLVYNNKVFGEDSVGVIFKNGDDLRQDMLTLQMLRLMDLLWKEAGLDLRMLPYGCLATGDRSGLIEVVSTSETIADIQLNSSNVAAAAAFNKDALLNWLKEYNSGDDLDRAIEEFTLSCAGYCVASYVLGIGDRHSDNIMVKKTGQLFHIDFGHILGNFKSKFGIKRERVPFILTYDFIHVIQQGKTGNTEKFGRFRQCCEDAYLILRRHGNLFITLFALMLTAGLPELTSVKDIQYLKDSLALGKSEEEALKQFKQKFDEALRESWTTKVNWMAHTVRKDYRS
Sequence of p110β/p85α (P27986 2-724 partner): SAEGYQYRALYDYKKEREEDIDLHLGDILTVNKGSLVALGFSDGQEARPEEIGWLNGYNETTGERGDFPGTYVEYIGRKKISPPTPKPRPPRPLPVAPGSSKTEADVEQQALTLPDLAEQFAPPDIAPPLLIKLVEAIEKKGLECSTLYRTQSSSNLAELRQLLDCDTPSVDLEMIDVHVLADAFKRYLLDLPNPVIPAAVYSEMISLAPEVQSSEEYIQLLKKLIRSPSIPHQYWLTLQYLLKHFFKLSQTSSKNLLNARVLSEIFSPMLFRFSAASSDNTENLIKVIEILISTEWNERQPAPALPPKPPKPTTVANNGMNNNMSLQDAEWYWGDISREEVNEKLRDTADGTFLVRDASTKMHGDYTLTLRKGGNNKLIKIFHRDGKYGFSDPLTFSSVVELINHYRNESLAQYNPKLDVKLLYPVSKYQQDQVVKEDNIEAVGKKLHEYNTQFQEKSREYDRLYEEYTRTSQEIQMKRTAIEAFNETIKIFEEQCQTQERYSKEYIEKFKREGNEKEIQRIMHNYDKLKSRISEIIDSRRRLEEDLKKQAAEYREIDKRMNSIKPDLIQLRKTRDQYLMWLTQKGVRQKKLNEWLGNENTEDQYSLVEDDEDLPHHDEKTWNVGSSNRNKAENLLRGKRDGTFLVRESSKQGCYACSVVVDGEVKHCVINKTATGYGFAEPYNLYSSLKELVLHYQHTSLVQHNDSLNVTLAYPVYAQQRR

SMILES | PI3Kβ IH % @ 1 uM (p110β/p85α) | PI3Kδ IH % @ 1 uM (p110δ/p85α) | IC50 (p110δ/p85α) | PI3Kγ IH % @ 1 uM (p110γ) | IC50 (p110β/p85α) | IC50 (p110γ)
COCCNC(=O)c1c[nH]c2ncnc(N3CC[C@H]3c3nn4ccc(Cl)c4c(=O)n3-c3ccccc3)c12 [Compound 228] | 13.8% | 74.6% | 176 nM | 59.9% | – | –
N#Cc1cnc(N)nc1N1C[C@@H](F)C[C@H]1c1nn2ccc(Cl)c2c(=O)n1-c1ccccc1 [Compound 229] | 81.5% | 97.6% | 3 nM | 90.4% | 262 nM | 2 nM
N#Cc1cnc(N)nc1N1CCC[C@H]1c1nn2ccc(F)c2c(=O)n1-c1ccccc1 [Compound 230] | 75.2% | >100% | 3 nM | 87.3% | 280 nM | 7 nM
N#Cc1cnc(N)nc1N1CCC[C@H]1c1nn2ccc(Cl)c2c(=O)n1-c1ccc(F)cc1 [Compound 231] | 80.5% | 98.1% | 9 nM | 96.8% | 197 nM | 4 nM
N#Cc1cnc(N)nc1N1CCC[C@H]1c1nn2ccc(Cl)c2c(=O)n1-c1cccc(F)c1 [Compound 232] | 63.4% | >100% | 6 nM | >100% | – | 14 nM
C[C@H]1CCN(c2ncnc3[nH]cc(C#N)c23)C1c1nn2ccc(Cl)c2c(=O)n1-c1ccccc1 (stereo partly drawn) [Compound 233] | >100% | >100% | – | >100% | – | –
C[C@H]1CCN(c2ncnc3[nH]cnc23)C1c1nn2ccc(Cl)c2c(=O)n1-c1ccccc1 (stereo partly drawn) [Compound 234] | 83.4% | >100% | – | >100% | – | –
C[C@H]1CCN(c2nc(N)ncc2C#N)C1c1nn2ccc(Cl)c2c(=O)n1-c1ccccc1 (stereo partly drawn) [Compound 236] | 79.8% | >100% | – | 94.9% | – | –
C[C@H]1CN(c2ncnc3[nH]cnc23)C1c1nn2ccc(Cl)c2c(=O)n1-c1ccccc1 (stereo partly drawn) [Compound 237] | 37.6% | >100% | 14 nM | 86.3% | – | 35 nM
C#Cc1cnc(N)nc1N1CCC[C@H]1c1nn2ccc(Cl)c2c(=O)n1-c1ccccc1 [Compound 238] | 33.8% | >100% | 14 nM | >100% | – | 18 nM
Cc1nc(N2CCC[C@H]2c2nn3ccc(F)c3c(=O)n2-c2ccccc2)c2nc[nH]c2n1 [Compound 239] | 59.8% | 98.7% | 18 nM | >100% | – | 75 nM
Nc1ncc([N+](=O)[O-])c(N2CCC[C@H]2c2nn3ccc(Cl)c3c(=O)n2-c2ccccc2)n1 [Compound 240] | 45.0% | 98.1% | 34 nM | >100% | – | 36 nM
Nc1nc2c(c(N3CC[C@H]3c3nn4ccc(Cl)c4c(=O)n3-c3ccccc3)n1)C(=O)CCN2 [Compound 241] | 31.9% | 95.3% | 32 nM | 98.7% | – | 14 nM
Nc1nc2c(c(N3CCC[C@H]3c3nn4ccc(Cl)c4c(=O)n3-c3ccccc3)n1)C(=O)CCN2 [Compound 242] | 46.5% | 96.8% | 10 nM | 98.9% | – | 19 nM
C[C@H]1CN(c2ncnc3[nH]cc(C#N)c23)[C@@H]1c1nn2ccc(F)c2c(=O)n1-c1ccccc1 [Compound 244] | 58.4% | 99.8% | 4 nM | 92.7% | – | 30 nM
Nc1nc2c(c(N3CCC[C@H]3c3nn4ccc(Br)c4c(=O)n3-c3ccccc3)n1)CCC2 [Compound 245] | 38.4% | 78.0% | 341 nM | 77.5% | – | 337 nM
Nc1nc2c(c(N3CCC[C@H]3c3nn4ccc(Cl)c4c(=O)n3-c3ccccc3)n1)CCC2 [Compound 246] | 2.5% | 84.6% | 562 nM | 80.8% | – | 696 nM
